Data taken from the supplement of paper PMC10307832.

Assays:
Assay in all cases: relative viability (nuclei count vs DMSO), 5 days (fraction); higher = more cells survive
Vismodegib + Bortezomib = compound: CS(=O)(=O)c1ccc(C(=O)Nc2ccc(Cl)c(-c3ccccn3)c2)c(Cl)c1 [Vismodegib] + CC(C)C[C@H](NC(=O)[C@H](Cc1ccccc1)NC(=O)c1cnccn1)B(O)O [Bortezomib] (partner 0.002 µM)
In short: (§1)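 Dosing by pin tool came one day after lung cancer cell lines were seeded in 1536-well plates, using either one drug or a fixed anchor-drug dose plus five library-drug doses (not always all listed) in √10 steps. After 5 days, nuclei were counted on 4× images. Relative viability is treated-well nuclei count divided by vehicle-well nuclei count, and values are medians of duplicate plates.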

VE-821 + Palbociclib = compound: CS(=O)(=O)c1ccc(-c2cnc(N)c(C(=O)Nc3ccccc3)n2)cc1 [VE-821] + CC(=O)c1c(C)c2cnc(Nc3ccc(N4CCNCC4)cn3)nc2n(C2CCCC2)c1=O [Palbociclib] (partner 0.5 µM)
In short: as §1

VE-821 + Vorinostat = compound: CS(=O)(=O)c1ccc(-c2cnc(N)c(C(=O)Nc3ccccc3)n2)cc1 [VE-821] + O=C(CCCCCCC(=O)Nc1ccccc1)NO [Vorinostat] (partner 1 µM)
In short: as §1

VE-821 + Luminespib = compound: CS(=O)(=O)c1ccc(-c2cnc(N)c(C(=O)Nc3ccccc3)n2)cc1 [VE-821] + CCNC(=O)c1noc(-c2cc(C(C)C)c(O)cc2O)c1-c1ccc(CN2CCOCC2)cc1 [Luminespib] (partner 0.01 µM)
In short: as §1

UMC-11
relative viability (Vismodegib + Bortezomib; first compound 0.08 µM): 0.593 | relative viability (Vismodegib + Bortezomib; first compound 0.253 µM): 0.665 | relative viability (Vismodegib + Bortezomib; first compound 0.8 µM): 0.85 | relative viability (Vismodegib + Bortezomib; first compound 2.53 µM): 0.717 | relative viability (Vismodegib + Bortezomib; first compound 8 µM): 0.745 | relative viability (VE-821 + Palbociclib; first compound 0.08 µM): 0.339 | relative viability (VE-821 + Palbociclib; first compound 0.253 µM): 0.309 | relative viability (VE-821 + Palbociclib; first compound 0.8 µM): 0.338 | relative viability (VE-821 + Palbociclib; first compound 2.53 µM): 0.377 | relative viability (VE-821 + Palbociclib; first compound 8 µM): 0.299 | relative viability (VE-821 + Vorinostat; first compound 0.08 µM): 0.335 | relative viability (VE-821 + Vorinostat; first compound 0.253 µM): 0.373 | relative viability (VE-821 + Vorinostat; first compound 0.8 µM): 0.386 | relative viability (VE-821 + Vorinostat; first compound 2.53 µM): 0.297 | relative viability (VE-821 + Vorinostat; first compound 8 µM): 0.202 | relative viability (VE-821 + Luminespib; first compound 0.08 µM): 1.18 | relative viability (VE-821 + Luminespib; first compound 0.253 µM): 0.966 | relative viability (VE-821 + Luminespib; first compound 0.8 µM): 0.966 | relative viability (VE-821 + Luminespib; first compound 2.53 µM): 1.03 | relative viability (VE-821 + Luminespib; first compound 8 µM): 0.493
